Entries after “also recorded” stand apart in the source; their conditions may differ.
How the values were obtained:
[1] = system: mice; test: morphine conditioned place preference (CPP) paradigm to assess morphine reward; type: in vivo
Text: The ability of a MAGL inhibitor to attenuate the rewarding effect of an opioid can also be assessed in animal models. For example, a morphine conditioning place preference (CPP) paradigm can be used as a preclinical model to measure reward, in which mice are conditioned to associate a particular chamber with the rewarding effects of morphine (see, e.g., Example 1). Reward, e.g., as measured by a preference for the morphine chamber, can be assessed at different phases of morphine conditioning, for example to assess if a MAGL inhibitor decreases or inhibits the establishment of the rewarding effect or of its maintenance or expression.
Endocannabinoid signaling is primarily regulated by MAGL and FAAH, the two enzymes responsible for catabolizing the endogenous cannabinoids, 2-AG and anandamide. Although some studies have shown that inhibition of these enzymes reduces certain aspects of morphine withdrawal, no studies exist that have examined their role in morphine reward. We utilized the morphine conditioned place preference (CPP) paradigm, to assess morphine reward, in which mice are conditioned to associate a particular chamber with the rewarding effects of morphine (FIG. 1A). […] To test the effect of systemic blockade of MAGL with the pharmacological inhibitor JZL-184 on morphine reward, on Day 1 mice underwent a baseline test, on Day 2-5 mice were conditioned to morphine wherein they received an intraperitoneal (i.p.) injection of JLZ-184 (10 mg/kg, i.p.), two hours prior to each morphine conditioning session (FIG. 1B). On day 6, mice were tested for morphine preference. […] Next, to test if this effect of MAGL inhibition was selective for the conditioning phase or potentially could also alter the expression of the morphine preference, mice were injected with JLZ-184 two hours prior to the Day 6 morphine preference test, in the absence of morphine (FIG. 1D).
In order to expand our findings, we decided to test the (R)-3t compound, a reversible MAGL inhibitor, in morphine conditioned place preference. As with JZL-184, (R)-3t (20 mg/kg) was given before each morphine conditioning session (FIG. 3A).
To test the effect of inhibiting the enzyme FAAH on the rewarding effects of morphine, we tested the effect of the FAAH inhibitor PF-3845 in morphine conditioned place preference. […] We additionally found no effect of PF-3845 (10 mg/kg, i.p.) on morphine-induced analgesia and morphine tolerance using the tail-flick test (FIGS. 4E-G).
Inhibition of the MAGL enzyme with JZL-184 results in lower metabolization of the endogenous cannabinoid 2-AG. This implies higher availability of this endogenous cannabinoid receptor 1 (CB1) ligand to activate CB1 receptors. Next, we tested the effect of activating the CB1 receptor with the exogenous CB1 ligand, THC, on morphine conditioned place preference. Mice were systemically administered THC prior to each morphine conditioning session (FIG. 5A).

[2] = system: mice; test: cocaine conditioned place preference (CPP); type: in vivo; settings: JZL-184 prior to each cocaine conditioning session
Text: Although drugs of abuse exert their rewarding effects through similar pathways and brain structures, they use different mechanisms. […] Mice were pretreated with JZL-184 prior to each cocaine conditioning session (FIG. 6A).

[3] = system: nucleus accumbens (NAc) activity; test: in vivo fiber photometry (GCaMP6s) recording during morphine CPP; settings: JZL-184 treated mice
Text: FIGS. 7A-7D. MAGL inhibition reduces nucleus accumbens (NAc) activity during morphine CPP. FIG. 7A: Experimental timeline for fiber photometry recording during […]. FIG. 7B: Brain schematic with an optic fiber implanted into the NAc expressing the calcium indicator GCaMP6s and a representative image of the GCaMP6s expressing in the NAc (aca=anterior commissure, AcbC=nucleus accumbens core, AcbSh=nucleus accumbens shell). FIG. 7C: Graph of the quantification of the mean signal (representative of NAc activity) around zone entry into the morphine- or saline-paired chambers of vehicle- or JZL-184-pretreated animals. (dF/F (%) data for the average signal +/− 5s around zone entries; vehicle-treated animals, morphine vs saline chamber *p<0.05, n=6; JZL-184 treated animals, morphine vs saline p=0.054, n=9). FIG. 7D: Graph of the quantification of the onset of approach to morphine- or saline-paired chambers (dF/F (%) data for the average signal +/− 5s of the onset of approaching a chamber; vehicle-treated animals, morphine vs saline chamber *p<0.05, n=6; JZL-184 treated animals, morphine vs saline p=0.39, n=9).
The rewarding effects of morphine have been linked to neural activity of the brain region the nucleus accumbens. […]

[4] = system: mice; test: tail flick test, tolerance to morphine's analgesic effects; type: in vivo
Method: Chronic morphine treatment can result in tolerance to its analgesic effects; therefore, to test if morphine tolerance was affected by MAGL inhibition, for four consecutive days mice received a morning and afternoon injection of JZL-184 (10 mg/kg, i.p.), two hours prior to an injection of morphine (10 mg/kg), and antinociception was assessed every other day in the tail flick test.

[5] = system: monoacylglycerol lipase (MAGL); settings: cited from earlier work
[6] = system: mice; test: tail flick test, morphine analgesia, cumulative dose response of morphine; type: in vivo
[7] = pretreatment with PF-3845 10 mg/kg i.p.

SMILES: Cc1ncccc1-c1cc(F)cc(N2C[C@H](N3CCN(c4ncccn4)CC3)CC2=O)c1 [(R)-3t, (4R)-1-[3-fluoro-5-(2-methylpyridin-3-yl)phenyl]-4-[4-(pyrimidin-2-yl)piperazin-1-yl]pyrrolidin-2-one]
- acquisition of morphine CPP (morphine reward) ([1]; (R)-3t 20 mg/kg before each morphine conditioning session): resulted in a lack of morphine reward; also recorded: abolishes the rewarding effects of morphine; also recorded: abolishes acquisition of CPP

SMILES: O=C(Oc1ccc([N+](=O)[O-])cc1)N1CCC(C(O)(c2ccc3c(c2)OCO3)c2ccc3c(c2)OCO3)CC1 [JZL-184, (4-nitrophenyl) 4-[bis(1,3-benzodioxol-5-yl)-hydroxymethyl]piperidine-1-carboxylate]
- acquisition of cocaine CPP (cocaine reward) [2]: did not have any effect on cocaine reward; also recorded: does not alter the acquisition of cocaine CPP
- higher nucleus accumbens activity when approaching the morphine-paired chamber ([3]; onset of approach (FIG. 7D)): abolished
- increase in nucleus accumbens activity prior to entry into the morphine-paired chamber vs saline-paired chamber ([3]; signal around zone entry (FIG. 7C)): absent
- acquisition of morphine CPP (morphine reward) ([1]; JZL-184 10 mg/kg i.p. two hours prior to each morphine conditioning session (Day 2-5), preference test Day 6, 10 mg/kg): abolishes morphine reward; also recorded: abolishes the rewarding effects of morphine; also recorded: abolished morphine CPP
- expression of morphine CPP ([1]; JZL-184 two hours prior to the Day 6 morphine preference test, in the absence of morphine): does not alter the expression of morphine CPP
- expression of morphine CPP ([1]; JZL-184 two hours prior to the Day 6 morphine preference test, in the absence of morphine, listed as JLZ-184): had no effect on morphine reward
- development of tolerance to morphine's analgesic effects ([4]; JZL-184 10 mg/kg i.p. morning and afternoon, two hours prior to morphine 10 mg/kg, four consecutive days, compared to vehicle): delayed morphine-induced tolerance; also recorded: delays the development of tolerance to morphine's analgesic effects
- selectivity for MAGL over other brain serine hydrolases, including FAAH [5]: highly selective for MAGL over other brain serine hydrolases
- morphine-induced analgesia ([6]; JZL-184 10 mg/kg i.p. two hours before morphine 0.1-10 mg/kg cumulative, tested 30 minutes after each dose): did not alter the analgesic effects of morphine; also recorded: does not affect morphine-induced analgesia

SMILES: O=C(Nc1cccnc1)N1CCC(Cc2cccc(Oc3ccc(C(F)(F)F)cn3)c2)CC1 [PF-3845]
- acquisition of morphine CPP ([1]; PF-3845 10 mg/kg i.p. before each conditioning session, 10 mg/kg): had no effect on acquisition of morphine conditioned place preference; also recorded: does not alter acquisition of morphine CPP
- expression of morphine CPP ([1]; PF-3845 10 mg/kg i.p. before the morphine CPP expression test, 10 mg/kg): had no effect; also recorded: does not alter
- morphine tolerance [4, 7]: no effect; also recorded: are not affected
- morphine-induced analgesia [6, 7]: no effect; also recorded: are not affected

SMILES: CCCCCc1cc(O)c2c(c1)OC(C)(C)[C@@H]1CCC(C)=C[C@@H]21 [THC, Δ^9-Tetrahydrocannabinol]
- acquisition of morphine CPP (morphine reward) ([1]; THC systemically prior to each morphine conditioning session): had no effect on morphine reward; also recorded: does not alter the acquisition of morphine CPP

From patent US20220288010A1, “METHODS FOR REDUCING REWARDING EFFECTS OF MORPHINE WITHOUT AFFECTING ITS ANALGESIC EFFECTS” (The Board of Trustees of the Leland Stanford Junior …, priority 2019, published 2022)
